Values of other authors, collected in patent US20200038318A1, “ORAL MEDICATION FORMULATIONS” (GRUNBIOTICS PTY LTD, priority 2016, published 2020).

System: patients with major depressive disorder who have a partial response or no response to SSRIs
Conditions: 15 mg/day

**Q.** With CN1c2c([nH]c(N)nc2=O)NC[C@@H]1CNc1ccc(C(=O)N[C@@H](CCC(=O)O)C(=O)O)cc1 [L-methylfolate] as the molecule, how does the “Efficacy, safety and tolerability as adjunctive treatment” value read?
**A.** Its value is “effective safe and relatively well tolerated”.
